Laboratory results: the NIST ThermoML archive (doi:10.1021/acs.jced.7b00836)
Numbers after ± are expanded uncertainties.

Settings: Liquid, Closed cell (Static) method

vapor or sublimation pressure (288.24 K) [kPa] | vapor or sublimation pressure (296.23 K) [kPa] | vapor or sublimation pressure (288.25 K) [kPa] | vapor or sublimation pressure (296.24 K) [kPa] | Structure (SMILES)
17 ± 4 | 21 ± 4 |  |  | CCCCCC [hexane]
 |  | 48 ± 4 | 66 ± 4 | CCCCC [pentane]
